Experimental data published in patent publication US20190111040A1, “IN VIVO AMELIORATION OF ENDOGENOUS ANTI-TUMOR AUTOANTIBODIES TARGETING SURFACE TUMOR ANTIGENS VIA LOW-DOSE P4N” (THE JOHNS HOPKINS UNIVERSITY, priority 2016, published 2019).
Where a name gives a salt, the structure may show the parent alone.

Assays:
Type in all cases: cell-based
mouse splenocytes = assay: Activin A and BAFF expression in mouse splenocytes; details: low dose P4N
Experimental: FIGS. 14A-14C depict P4N-induced mouse B cell proliferation via the Activin A/BAFF pathway. (A) The proliferation of P4N-treated splenocytes. Splenocytes isolated from three mice were individually treated with increasing concentrations of P4N for 48 h and their proliferation was analyzed by MTT assay. The data are reported as the proliferation index. […] (B) The proliferation of B cells in mouse splenocytes treated with low doses of P4N. After treatment with P4N for 48 h, B-cells were identified by CD19 surface marker staining and the cell number was calculated following a flow cytometer analysis. […] Levels of Activin A and BAFF transcripts were measured by RT-PCR. Each sample obtained from 3 different mice; N, no treatment; P, P4N-treatment.
Reverse transcription PCR. Human PBMCs or THP-1 cells were treated with P4N, and then the mRNA expression of INHBA and BAFF in these cells was measured by reverse transcription PCR. Briefly, total cellular RNA was extracted with Trizol reagent (Invitrogen) and reverse-transcribed into cDNA using the Superscript RT-kit (Invitrogen). The cDNA of INHBA and BAFF were then amplified by PCR. GAPDH cDNA in the samples was used to normalize the loading amounts in each reaction. Finally, PCR products were resolved by electrophoresis on 2% agarose gels and visualized with ethidium bromide.

human PBMCs [1] = assay: Activin A and BAFF expression in human PBMCs; details: low dose P4N (3 μM)
Experimental: FIGS. 5A-5F depict the expression of Activin A/BAFF induced by P4N treatments. (A) P4N induced Activin A or BAFF expression in human PBMCs as determined by RT-PCR. S1-S5 display different individual blood samples collected from 5 different human donors; N, no treatment; P, P4N-treatment (3 μM). The change in Activin A and BAFF expression (mean of 5 patients) relative to the control (NC) is plotted as a histogram (B) The effect of increasing dosages of P4N for 12 h on mRNA and protein levels of Activin A or BAFF in THP-1 cells was analyzed by RT-PCR and ELISA. (C) The effect of 6 μM P4N on mRNA and protein levels of Activin A or BAFF in THP-1 cells was determined at a different time period. (D) The effect of different inhibitors on Activin A-induced BAFF expression was examined. The expression of BAFF mRNA in inhibitor-treated THP-1 cells was determined by RT-PCR, and (E) BAFF protein secretion was measured by ELISA. (F) The effect of THP-1 conditioned media on the proliferation of Raji cells and OKT3 hybridoma cells were determined. […] The results are expressed as % viable cells relative to the control (NC, media from untreated THP-1 cells). […]
Reverse transcription PCR. Human PBMCs or THP-1 cells were treated with P4N, and then the mRNA expression of INHBA and BAFF in these cells was measured by reverse transcription PCR. […]

human PBMCs [2] = assay: PBMC proliferation assay; details: 48 h
Experimental: PBMC proliferation assay. Two hundred microliters of PBMCs (5×10^4 cells/ml) were seeded in each well of a 96-well culture plate and treated with increasing concentrations of P4N (0.38, 0.75, 1.5, 3 or 6 μM) for 48 h. The number of viable cells was evaluated by MTT assay and a cell proliferation index was calculated as follows: Proliferation index=(OD595 of sample)/(OD595 of the untreated cells)×100%. PBMCs were also treated with or without P4N (0.75, 1.5 or 3 μM) for 48 h, and probed with anti-CD20 antibodies (Roche, Mannheim, Germany) and FITC-conjugated goat anti-human IgG polyclonal antibodies (SouthernBiotech, Birmingham, Ala.). The percentage of B cells in treated PBMCs was determined by flow cytometry (BD Biosciences, Mountain View, Calif.), and the indices of B cell proliferation were calculated as follows: (the number of PBMCs×the percentage of B cells in treated PBMCs)/(the number of PBMCs×the percentage of B cells in untreated PBMCs).

LTA4H = target: T1, LTA4H (Homo sapiens, UniProt P09960); assay: LTB4 ELISA in THP-1 culture media; details: THP-1, 3 μM P4N
T1 construct: THP-1 cells (1×10^6 cells/ml/well) in a 24-well culture plate; endogenous in cells; host or cells: THP-1 cells (BCRC, Hsinchu, Taiwan)
T1 sequence (P09960 1-611): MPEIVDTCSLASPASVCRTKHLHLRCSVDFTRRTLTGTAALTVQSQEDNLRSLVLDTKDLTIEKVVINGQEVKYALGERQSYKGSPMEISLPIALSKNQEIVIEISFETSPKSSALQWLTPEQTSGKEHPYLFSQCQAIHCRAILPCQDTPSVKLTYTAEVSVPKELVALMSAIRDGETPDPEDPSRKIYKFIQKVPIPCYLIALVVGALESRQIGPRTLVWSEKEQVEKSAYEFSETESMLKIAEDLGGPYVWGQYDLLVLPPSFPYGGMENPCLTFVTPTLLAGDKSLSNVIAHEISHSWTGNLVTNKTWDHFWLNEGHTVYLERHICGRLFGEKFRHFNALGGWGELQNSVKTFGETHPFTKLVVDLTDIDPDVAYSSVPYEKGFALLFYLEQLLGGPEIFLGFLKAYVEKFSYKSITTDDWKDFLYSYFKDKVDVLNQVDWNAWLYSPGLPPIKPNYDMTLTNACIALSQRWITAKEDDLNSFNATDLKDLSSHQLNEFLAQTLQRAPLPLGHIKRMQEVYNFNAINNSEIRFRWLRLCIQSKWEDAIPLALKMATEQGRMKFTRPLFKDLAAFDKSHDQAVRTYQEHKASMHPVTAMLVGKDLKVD
Experimental: ELISA assays. THP-1 cells (1×10^6 cells/ml/well) in a 24-well culture plate were pretreated with 10 μM bestatin (a LTA4H inhibitor, Sigma-Aldrich) for 2 h and then treated with 3 μM P4N for various time intervals. The levels of LTB4 in the culture media were determined by the LTB4 (Enzo Life Sciences, Farmingdale, N.Y.) (R&D) ELISA Kits. The amount of TNF-α, IL-8 and Activin A in cultured media were measured in a similar manner.

production of LTA4H reaction product LTB4 (LTA4H): increased the production
Structure (SMILES): C[C@H](Cc1ccc(OCCN2CCCCC2)c(OCCN2CCCCC2)c1)[C@@H](C)Cc1ccc(OCCN2CCCCC2)c(OCCN2CCCCC2)c1 [P4N, meso-2,3-dimethyl-1,4-bis(3,4-[2-(piperidino)ethoxyphenyl])butane tetrakishydrochloride salt]
gene expression and protein production of Activin A and BAFF (mouse splenocytes): increase their gene expression and protein production
gene expression and protein production of Activin A and BAFF (human PBMCs [1]): increase their gene expression and protein production
increase of PBMC proliferation (human PBMCs [2]; depending on the dose of P4N (0.38-6 μM), MTT): 10-35%
proliferation of the B cell population in human PBMCs (human PBMCs [2]; flow cytometry): significantly increased
